Columns and labels:
Format in all cases: cell-based
[1] = test system: Enterococcus faecalis (EFA); test: MIC, two-fold agar dilution (CLSI), clinical isolates
Procedure, shortened: (§1)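 Following the American Clinical and Laboratory Standards Institute procedure, agar two-fold dilution served to determine minimum inhibitory concentrations.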

[2] = test system: Enterococcus faecium (EFM); test: as above
Procedure, shortened: as §1

[3] = test system: Escherichia coli (including ESBLs, non-ESBLs); test: as above
Procedure, shortened: as §1

[4] = test system: Moraxella catarrhalis (BCA); test: as above
Procedure, shortened: as §1

[5] = test system: Streptococcus pneoumoniae (SPN); test: as above
Procedure, shortened: as §1

[6] = test system: methicillin-resistant Staphylococcus aureus (MRSA); test: as above
Procedure, shortened: as §1

[7] = test system: methicillin-resistant Staphylococcus epidermidis (MRSE); test: as above
Procedure, shortened: as §1

[8] = test system: methicillin-sensitive Staphylococcus aureus (MSSA); test: as above
Procedure, shortened: as §1

[9] = test system: methicillin-sensitive Staphylococcus epidermidis (MSSE); test: as above
Procedure, shortened: as §1

[10] = test system: HCT-116 colorectal cancer cell line; test: CCK-8 proliferation inhibition; settings: Homo sapiens, HCT-116, 72 h, concentration of 30 μM; 72 hours; CCK-8; read-out: HCT116 inhibition rate/%
Procedure, shortened: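 Cells seeded at 2000 cells/well, cultured overnight at 37 °C, 5% CO2, then exposed to compound (DMSO; control 1‰ DMSO) for 72 h in McCoy's 5A with 10% newborn bovine serum. Viability read with 1:10 diluted CCK-8.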

O=C(C[C@@H](CC1CCCC1)C(=O)N1CC2(CC2)C[C@H]1C(=O)Nc1nncs1)NO [Example 74]
0.5 µg/mL: Anti-bacterial activity (MIC), strain MRSE 15-1 ([7]; clinical isolate MRSE 15-1)
1%: inhibition at 30 µM [10]
4 µg/mL: Anti-bacterial activity (MIC) ([2]; strain EFM 15-3) | Anti-bacterial activity (MIC) ([2]; strain EFM 15-5) | Anti-bacterial activity (MIC) ([5]; strain SPN 16-4) | Anti-bacterial activity (MIC), strain MRSA 15-1 ([6]; clinical isolate MRSA 15-1) | Anti-bacterial activity (MIC), strain MRSE 15-7 ([7]; clinical isolate MRSE 15-7) | Anti-bacterial activity (MIC), strain MSSA 15-3 ([8]; clinical isolate MSSA 15-3) | Anti-bacterial activity (MIC), strain MSSA 15-4 ([8]; clinical isolate MSSA 15-4) | Anti-bacterial activity (MIC), strain MSSA 15-6 ([8]; clinical isolate MSSA 15-6)
8 µg/mL: Anti-bacterial activity (MIC), strain MRSA 15-2 ([6]; clinical isolate MRSA 15-2) | Anti-bacterial activity (MIC), strain MRSA 15-4 ([6]; clinical isolate MRSA 15-4)
> 32 µg/mL: Anti-bacterial activity (MIC) ([1]; strain EFA 15-1) | Anti-bacterial activity (MIC) ([1]; strain EFA 15-2) | Anti-bacterial activity (MIC) ([1]; strain EFA 15-4) | Anti-bacterial activity (MIC) ([1]; strain EFA 15-5) | Anti-bacterial activity (MIC) ([1]; strain EFA 15-6) | Anti-bacterial activity (MIC) ([1]; strain EFA 15-9) | Anti-bacterial activity (MIC), strain ECO+ 15-2 ([3]; clinical isolate ECO+ 15-2) | Anti-bacterial activity (MIC), strain ECO+ 15-3 ([3]; clinical isolate ECO+ 15-3) | Anti-bacterial activity (MIC), strain ECO+ 15-4 ([3]; clinical isolate ECO+ 15-4) | Anti-bacterial activity (MIC), strain ECO− 15-1 ([3]; clinical isolate ECO− 15-1) | Anti-bacterial activity (MIC), strain ECO− 15-2 ([3]; clinical isolate ECO− 15-2) | Anti-bacterial activity (MIC), strain ECO− 15-3 ([3]; clinical isolate ECO− 15-3) | Anti-bacterial activity (MIC), strain ECO− 15-4 ([3]; clinical isolate ECO− 15-4) | Anti-bacterial activity (MIC) ([4]; strain BCA 14-1) | Anti-bacterial activity (MIC) ([4]; strain BCA 14-4) | Anti-bacterial activity (MIC) ([4]; strain BCA 14-6) | Anti-bacterial activity (MIC) ([4]; strain BCA 14-7) | Anti-bacterial activity (MIC) ([4]; strain BCA 14-8) | Anti-bacterial activity (MIC) ([4]; strain BCA 14-10)
5 µg/mL: Anti-bacterial activity (MIC), strain MRSA 15-3 ([6]; clinical isolate MRSA 15-3)
2 µg/mL: Anti-bacterial activity (MIC), strain MSSA 15-5 ([8]; clinical isolate MSSA 15-5)
32 µg/mL: Anti-bacterial activity (MIC) ([2]; strain EFM 15-2) | Anti-bacterial activity (MIC) ([2]; strain EFM 15-4) | Anti-bacterial activity (MIC) ([2]; strain EFM 15-6) | Anti-bacterial activity (MIC), strain ECO+ 15-1 ([3]; clinical isolate ECO+ 15-1) | Anti-bacterial activity (MIC) ([5]; strain SPN 16-2)
1 µg/mL: Anti-bacterial activity (MIC), strain MRSE 15-2 ([7]; clinical isolate MRSE 15-2) | Anti-bacterial activity (MIC), strain MRSE 15-3 ([7]; clinical isolate MRSE 15-3) | Anti-bacterial activity (MIC), strain MSSE 15-3 ([9]; clinical isolate MSSE 15-3) | Anti-bacterial activity (MIC), strain MSSE 15-4 ([9]; clinical isolate MSSE 15-4) | Anti-bacterial activity (MIC), strain MSSE 15-5 ([9]; clinical isolate MSSE 15-5) | Anti-bacterial activity (MIC), strain MSSE 15-6 ([9]; clinical isolate MSSE 15-6)
16 µg/mL: Anti-bacterial activity (MIC) ([1]; strain EFA 15-3) | Anti-bacterial activity (MIC) ([2]; strain EFM 15-1) | Anti-bacterial activity (MIC) ([4]; strain BCA 14-5)

CCCC[C@H](CC(=O)NO)C(=O)N1CC2(CCCC2)C[C@H]1C(=O)Nc1cc(C)on1 [Example 80, (S)-2-((R)-2-(2-(hydroxyamino)-2-oxoethyl)hexanoyl)-N-(5-methylisoxazol-3-yl)-2-spiro[4.4]nonane-3-carboxamide]
11%: inhibition at 30 µM [10]
4 µg/mL: Anti-bacterial activity (MIC) ([2]; strain EFM 15-2) | Anti-bacterial activity (MIC) ([2]; strain EFM 15-4) | Anti-bacterial activity (MIC) ([4]; strain BCA 14-7) | Anti-bacterial activity (MIC) ([4]; strain BCA 14-10) | Anti-bacterial activity (MIC) ([5]; strain SPN 16-4)
1 µg/mL: Anti-bacterial activity (MIC) ([6]; strain MRSA 15-1) | Anti-bacterial activity (MIC) ([6]; strain MRSA 15-3) | Anti-bacterial activity (MIC) ([8]; strain MSSA 15-4) | Anti-bacterial activity (MIC) ([8]; strain MSSA 15-6) | Anti-bacterial activity (MIC) ([9]; strain MSSE 15-3)
2 µg/mL: Anti-bacterial activity (MIC) ([2]; strain EFM 15-5) | Anti-bacterial activity (MIC) ([4]; strain BCA 14-5) | Anti-bacterial activity (MIC) ([6]; strain MRSA 15-2) | Anti-bacterial activity (MIC) ([6]; strain MRSA 15-4) | Anti-bacterial activity (MIC) ([7]; strain MRSE 15-7) | Anti-bacterial activity (MIC) ([8]; strain MSSA 15-3)
0.5 µg/mL: Anti-bacterial activity (MIC) ([7]; strain MRSE 15-2) | Anti-bacterial activity (MIC) ([7]; strain MRSE 15-3) | Anti-bacterial activity (MIC) ([8]; strain MSSA 15-5)
8 µg/mL: Anti-bacterial activity (MIC) ([1]; strain EFA 15-3) | Anti-bacterial activity (MIC) ([2]; strain EFM 15-1) | Anti-bacterial activity (MIC) ([2]; strain EFM 15-3) | Anti-bacterial activity (MIC) ([2]; strain EFM 15-6) | Anti-bacterial activity (MIC) ([4]; strain BCA 14-1) | Anti-bacterial activity (MIC) ([4]; strain BCA 14-4) | Anti-bacterial activity (MIC) ([4]; strain BCA 14-6) | Anti-bacterial activity (MIC) ([4]; strain BCA 14-8) | Anti-bacterial activity (MIC) ([5]; strain SPN 16-2)
> 16 µg/mL: Anti-bacterial activity (MIC) ([1]; strain EFA 15-2) | Anti-bacterial activity (MIC) ([1]; strain EFA 15-4) | Anti-bacterial activity (MIC) ([1]; strain EFA 15-5) | Anti-bacterial activity (MIC) ([1]; strain EFA 15-6) | Anti-bacterial activity (MIC) ([1]; strain EFA 15-9) | Anti-bacterial activity (MIC) ([3]; strain ECO+ 15-1) | Anti-bacterial activity (MIC) ([3]; strain ECO+ 15-3) | Anti-bacterial activity (MIC) ([3]; strain ECO+ 15-4) | Anti-bacterial activity (MIC) ([3]; strain ECO− 15-1) | Anti-bacterial activity (MIC) ([3]; strain ECO− 15-2) | Anti-bacterial activity (MIC) ([3]; strain ECO− 15-3) | Anti-bacterial activity (MIC) ([3]; strain ECO− 15-4)
16 µg/mL: Anti-bacterial activity (MIC) ([1]; strain EFA 15-1) | Anti-bacterial activity (MIC) ([3]; strain ECO+ 15-2)
0.25 µg/mL: Anti-bacterial activity (MIC) ([7]; strain MRSE 15-1) | Anti-bacterial activity (MIC) ([9]; strain MSSE 15-4) | Anti-bacterial activity (MIC) ([9]; strain MSSE 15-5) | Anti-bacterial activity (MIC) ([9]; strain MSSE 15-6)

— patent US10738028B2, “Spiro three-membered ring, spiro five-membered ring peptide deformylase inhibitor and use thereof in antibacteria and anti-tumor” (priority 2016, dated 2020)
